Measurements as given in publication PMC12040169 (PLOS Biology, 2025).

Assay: in vitro
Conditions: human, hela cells, % viability

SMILES | viability at 28.5 h, 10 µM
NC(=O)c1cccc(-c2cnc(N)c(N3CCC[C@@H]3CO)n2)c1 [CBK063458] | 99.5%
C[C@@H](Nc1cncc(-c2ccc(F)cc2F)n1)c1ccccc1 [CBK065676] | 87%
COc1ccccc1/C=N/N=C(/Nc1ccc(C)cc1)c1nc2ccccc2s1 [CBK265051] | 124%
CC(C)CC(NC(=O)Cc1cccc(O)c1)c1nnc2n1CCNCC2 (centres unmarked) [CBK307183] | 98.3%
Cc1sc2nc(SCc3cc(O)[nH]n3)nc(N)c2c1C [CBK264585] | 88.6%
NC(=O)C1(N2CCCCC2)CCN(C2CC(=O)N(Cc3ccc(N4CCCC4=O)cc3)C2=O)CC1 (centres unmarked) [CBK266598] | 102%
COc1cc2cc(C(=O)N3CCN(Cc4ccc5c(c4)OCO5)CC3)c(=O)oc2cc1OC [CBK074790] | 102%
O=C(Nc1ccccc1[N+](=O)[O-])C1(c2ccccc2)CCN(S(=O)(=O)c2ccccc2)CC1 [CBK267796] | 85.9%
Cc1nnc(Sc2nc(CN3CCOCC3)nc3scc(-c4cccs4)c23)n1C [CBK297092] | 103%
COc1ccc(C2(C(=O)N3CCC(c4ccncc4)CC3)CC2)cc1 [CBK285476] | 111%
COc1ccc(-c2nnc(SC(C)c3nnc(-c4ccccc4)o3)n2CC(C)C)cc1 (centres unmarked) [CBK297108] | 103%
O=C(Nc1ccc(Br)cc1)C1CCCN1S(=O)(=O)c1ccc(Cl)cc1 (centres unmarked) [CBK155481] | 88.4%
O=C(CCn1cc(Br)ccc1=O)NC1CCN(Cc2ccccc2)CC1 [CBK305778] | 101%
NC(=O)C(NCc1ccccc1)c1ccc(Cl)cc1 (centres unmarked) [CBK012748] | 84%
Cc1ccc2nc(-c3ccccn3)cc(C(=O)NCc3ccccn3)c2c1 [CBK267782] | 86.6%
COc1ccc(C(=O)N2CCC3(CCCN(C(=O)c4cc(OC)c(OC)c(OC)c4)C3)C2)cc1OC (centres unmarked) [CBK131667] | 86.7%
CC1Cc2cc(CC(=O)N(C)CC(F)(F)F)ccc2O1 (centres unmarked) [CBK283067] | 109%
Nc1ncc(-c2ccc(C(=O)N3CCOCC3)cc2)nc1-c1cccnc1 [CBK126356] | 106%
N=C(N)NS(=O)(=O)c1ccc(N/C=C\C(=O)c2ccc3ccccc3c2)cc1 [CBK263374] | 98.6%
Cc1noc2nc(-c3ccccc3F)cc(C(=O)N3CCCC3c3nnc4ccccn34)c12 (centres unmarked) [CBK296756] | 93.2%
C[C@@H](Cn1nnc2ccccc21)NC(=O)Cc1cccs1 [CBK282312] | 92.8%
CCC(Cc1c[nH]c2ccccc12)NC(=N)N (centres unmarked) [CBK010430] | 102%

SMILES | viability at 28.5 h, 10 µM
Cc1ccc(N2CCCN(C(=O)COc3ccccc3F)CC2)nn1 [CBK305261] | 99.4%
Cc1cc(CNC(=O)C2(c3ccccc3)CCCC2)no1 [CBK149518] | 103%
COc1cccc(NC(=O)CCCC(=O)O)c1 [CBK261324] | 98.1%
CC(C)c1nccc(CN2CCC(CCN3CCCC3=O)CC2)n1 [CBK306887] | 116%
COC1CCC(C(=O)Nc2cnc(-c3ccc(F)c(Cl)c3)c(-c3ccc(C(C)=O)s3)n2)CC1 (centres unmarked) [CBK036718] | 99.3%
Cc1cc(C)c2sc(NC(=O)c3ccccc3)nc2c1 [CBK287614] | 104%
CNCC(=O)N(CCc1cc(C(F)(F)F)cc(C(F)(F)F)c1)c1ccc2c(c1)OCO2 [CBK001038T] | 120%
Cc1ccccc1-c1ccc(C(=O)N(C)CCN(C)C)c(N(C)C)n1 [CBK106090] | 96%
COc1c(Cl)cc(Cl)cc1CNCc1cccnc1 [CBK270142C] | 94.2%
N/C(=N\OC(=O)c1ccccc1CCc1ccccc1)c1cccnc1 [CBK268188] | 91.5%
Cc1cccc(-c2n[nH]c(=S)n2CCC(=O)Nc2ccc(N3CCCC3=O)c(C)c2)c1 [CBK296733] | 89.1%
O=C(Nc1ccc(Cl)c(S(=O)(=O)N2CCCC2)c1)c1cnccn1 [CBK295176] | 87.9%
CC(C)(C)OC(=O)N1CCN(c2ccc(Cl)nn2)CC1 [CBK113381] | 96.2%
O=C(Nc1ncnc2c1nc(OCc1ccccc1)n2C1CC(O)C(CO)O1)c1ccccc1 (centres unmarked) [CBK201220] | 95.3%
COc1ccccc1N1C(=O)c2ccc(C(=O)Nc3cc([N+](=O)[O-])ccc3O)cc2C1=O [CBK264272] | 95.3%
Clc1ccc(C2N(Cc3ccccc3)CCC3CCCCN32)cc1Cl (centres unmarked) [CBK028769] | 86.6%
O=C(NC1CC1)[C@H]1CN(Cc2ccccc2)C[C@@H]1C(=O)c1ccccc1 [CBK285264] | 105%
CCN1CCN(C(=O)c2ccc(N(C)C)cc2)CC1 [CBK200252] | 96.4%
O=C(OCc1ccccc1)N1CCC(n2ccn(C(=O)CCC3CCCC3)c2=O)CC1 [CBK106670] | 86.7%
COc1cccc(NC(=O)N2CCC(n3c(=O)n(C(=O)Nc4cccc(OC)c4)c4ccccc43)CC2)c1 [CBK149177] | 94.8%
Fc1ccc2nc(NCC3CCCO3)sc2c1 (centres unmarked) [CBK287647] | 110%
O=C(O)C(Cc1ccccc1)N1C(=O)/C(=C/C=C/c2ccccc2)SC1=S (centres unmarked) [CBK263496] | 99.6%
